Test results published in ChEMBL document CHEMBL1201862, “PubChem BioAssay data set” (2004).
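Compound exposure: 48 hours, 5 concentrations, 96-well plates. The concentration for 50% growth inhibition is given as GI50.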 Activity calls are given as the source filed them. Rule as the data show it: active = GI50 up to about 1.1 µM and inactive = higher.

Key:
Assay in all cases: DTP human tumour cell line panel, 48 h
[1] = system: NCI-H23
[2] = system: DU-145
[3] = system: HOP-62
[4] = system: UO-31
[5] = system: NCI-H226
[6] = system: KM12
[7] = system: SF-268
[8] = system: MDA-N
[9] = system: IGROV-1
[10] = system: CAKI-1
[11] = system: UACC-257
[12] = system: RPMI-8226
[13] = system: HCC 2998
[14] = system: NCI-H522
[15] = system: LOX IMVI
[16] = system: SF-539
[17] = system: Malme-3M
[18] = system: NCI-H460
[19] = system: HL-60
[20] = system: SK-OV-3

Row | Structure (SMILES) | GI50 [1] | GI50 [2] | GI50 [3] | GI50 [4] | GI50 [5] | GI50 [6] | GI50 [7] | GI50 [8] | GI50 [9] | GI50 [10] | GI50 [11] | GI50 [12] | GI50 [13] | GI50 [14] | GI50 [15] | GI50 [16] | GI50 [17] | GI50 [18] | GI50 [19] | GI50 [20]
1 | Cc1ccc2c(c1C)-c1c(ccc(C)c1C)C(=O)C2=O | 0.53 µM (active) | 1.14 µM (inactive) | 1.39 µM (inactive) | 0.625 µM (active) | 1.66 µM (inactive) | 0.165 µM (active) | 0.385 µM (active) | 0.173 µM (active) | 0.357 µM (active) | 0.662 µM (active) | 1.37 µM (inactive) | 0.193 µM (active) | 3.7 µM (inactive) | 0.148 µM (active) | 0.304 µM (active) | 0.21 µM (active) | 0.598 µM (active) | 0.966 µM (active) | 0.219 µM (active) | 2.15 µM (inactive)
2 | N=C(N)SCc1ccc(N=C=S)cc1 | 14.2 µM (inactive) | 15.9 µM (inactive) | 16.6 µM (inactive) | 12.5 µM (inactive) | 15.6 µM (inactive) | 14.3 µM (inactive) | 20.2 µM (inactive) | 13.7 µM (inactive) | 12.9 µM (inactive) | 12.7 µM (inactive) | 13.1 µM (inactive) | 12.4 µM (inactive) | 16.6 µM (inactive) | 10 µM (inactive) | 12.8 µM (inactive) | 14.1 µM (inactive) | 14.3 µM (inactive) | 14.9 µM (inactive) | 5.62 µM (inactive) | 17.3 µM (inactive)
3 | COc1cc(OC)cc(OCc2nc3cc(C(F)(F)F)ccc3nc2-c2ccccc2)c1 | > 100 µM (inactive) | > 100 µM (inactive) | > 100 µM (inactive) | > 100 µM (inactive) | 90.8 µM (inactive) | > 100 µM (inactive) | > 100 µM (inactive) | > 100 µM (inactive) | 0.809 µM (active) | > 100 µM (inactive) | > 100 µM (inactive) | > 100 µM (inactive) | > 100 µM (inactive) | > 100 µM (inactive) | > 100 µM (inactive) | > 100 µM (inactive) | > 100 µM (inactive) | > 100 µM (inactive) | > 100 µM (inactive) | > 100 µM (inactive)
4 | CC(C)C1OC(=O)C(Cc2ccccc2)N(C)C(=O)C(C(C)C)OC(=O)C(Cc2ccccc2)N(C)C(=O)C(C(C)C)OC(=O)C(Cc2ccccc2)N(C)C1=O (stereo not given) | 1.03 µM (active) | 1.62 µM (inactive) | 0.838 µM (active) | 0.307 µM (active) | 1.36 µM (inactive) | 0.501 µM (active) | 1.4 µM (inactive) | 0.815 µM (active) | 1.03 µM (active) | 0.979 µM (active) | 0.748 µM (active) | 0.489 µM (active) | 0.762 µM (active) | 0.689 µM (active) | 0.802 µM (active) | 1.03 µM (active) | 0.359 µM (active) | 0.865 µM (active) | 0.498 µM (active) | 0.836 µM (active)
5 | Cc1ccc(/N=C2\SC(=NN(C)C)S\C2=N/c2ccc(C)cc2)cc1 | > 100 µM (inactive) | > 100 µM (inactive) | > 100 µM (inactive) | > 100 µM (inactive) | > 100 µM (inactive) | > 100 µM (inactive) | > 100 µM (inactive) | > 100 µM (inactive) | > 100 µM (inactive) | > 100 µM (inactive) | > 100 µM (inactive) | > 100 µM (inactive) | > 100 µM (inactive) | 4.71 µM (inactive) | > 100 µM (inactive) | > 100 µM (inactive) | > 100 µM (inactive) | > 100 µM (inactive) | > 100 µM (inactive) | > 100 µM (inactive)
6 | CNc1ccc(C(=O)CC(O)CCC(C)C2OC(=O)CC(O)CC(=O)CC(O)CC(O)CC(O)CC(O)CC3(O)CC(O)C(C(=O)N4CCOCC4)C(CC(OC4OC(C)C(O)C(N)C4O)\C=C/C=C\C=C/C=C/C=C/C=C\C=C/C2C)O3)cc1 (stereo not given) | 0.329 µM (active) | 0.527 µM (active) | 0.351 µM (active) | 0.195 µM (active) | 0.277 µM (active) | 0.319 µM (active) | 0.218 µM (active) | 0.304 µM (active) | 0.244 µM (active) | 0.227 µM (active) | 0.185 µM (active) | 0.259 µM (active) | 0.374 µM (active) | 0.244 µM (active) | 0.243 µM (active) | 0.351 µM (active) | 0.137 µM (active) | 0.27 µM (active) | 0.373 µM (active) | 0.418 µM (active)
7 | N=C1OC(c2cccc(Cl)c2)C(NNS(=O)(=O)c2ccccc2)=C1O (stereo not given) | 25.8 µM (inactive) | > 100 µM (inactive) | > 100 µM (inactive) | 26.6 µM (inactive) | 43.9 µM (inactive) | 47.8 µM (inactive) | 39.7 µM (inactive) | 14.5 µM (inactive) | 70.5 µM (inactive) | 31.4 µM (inactive) | 33.3 µM (inactive) | 10.9 µM (inactive) | 36.4 µM (inactive) | 10.6 µM (inactive) | 20.7 µM (inactive) | 33.4 µM (inactive) | 22.4 µM (inactive) | 44.1 µM (inactive) | 2.87 µM (inactive) | > 100 µM (inactive)
8 | COC(=O)c1ccccc1C1CN=NC12Cc1ccccc1C2=O (stereo not given) | > 100 µM (inactive) | > 100 µM (inactive) | > 100 µM (inactive) | 34.2 µM (inactive) | > 100 µM (inactive) | 58.1 µM (inactive) | > 100 µM (inactive) | > 100 µM (inactive) | > 100 µM (inactive) | > 100 µM (inactive) | > 100 µM (inactive) | 48 µM (inactive) | > 100 µM (inactive) | 59.2 µM (inactive) | 45.4 µM (inactive) | > 100 µM (inactive) | 74.5 µM (inactive) | > 100 µM (inactive) | 47.4 µM (inactive) | > 100 µM (inactive)
9 | NS(=O)(=O)c1ccc(N2C(=O)C(=O)N(c3ccccc3)C2=S)cc1 | > 100 µM (inactive) | > 100 µM (inactive) | > 100 µM (inactive) | > 100 µM (inactive) | 61.1 µM (inactive) | > 100 µM (inactive) | > 100 µM (inactive) | > 100 µM (inactive) | > 100 µM (inactive) | > 100 µM (inactive) | 37.8 µM (inactive) | > 100 µM (inactive) | > 100 µM (inactive) | 27 µM (inactive) | > 100 µM (inactive) | > 100 µM (inactive) | > 100 µM (inactive) | > 100 µM (inactive) | > 100 µM (inactive) | > 100 µM (inactive)
10 | N#Cc1c(N2CCCC2)ncn(Cc2ccccc2)c1=S | > 100 µM (inactive) | 86.3 µM (inactive) | 40.3 µM (inactive) | > 100 µM (inactive) | > 96.2 µM (inactive) | > 100 µM (inactive) | 33.6 µM (inactive) | > 100 µM (inactive) | > 87.9 µM (inactive) | > 48 µM (inactive) | > 100 µM (inactive) | > 100 µM (inactive) | > 100 µM (inactive) | > 90.4 µM (inactive) | > 100 µM (inactive) | 40.1 µM (inactive) | > 87.9 µM (inactive) | > 100 µM (inactive) | > 100 µM (inactive) | > 100 µM (inactive)
